Here are results for five molecules from patent publication US20100204470A1, “METHOD FOR SALT PREPARATION” (Sandoz AG, priority 2006, published 2010).

The conditions of series [1]: anhydrous vs monohydrate hydrochloride; disclosed in WO 95/07902; cited from earlier work.
For series [2] the following is noted: compared with monohydrate salt form; disclosed in WO 95/07902; cited from earlier work.
A short description of series [3]: General solubility / stability of the crystalline salt. The settings on record: qualitative statement. Type of series: physicochemical.
Series [4] in a line: Stability of solvate under air drying conditions (desolvation).
The nature of series [5]: Storage in a dessicator at a humidity level of 33% (hygroscopicity, conversion to hydrous form). Type of series: physicochemical. The source says: The present invention also relates to a novel anhydrous hydrochloride salt of Moxifloxacin, herein called form IV. […] More particular, the invention relates to form IV characterized by an X-ray powder diffraction pattern with peaks at about 10.0, 13.2, 15.3, 17.2 and 24.4 degrees 2 theta. The invention also relates to form IV characterized by infrared absorption bands at about 2704, 1720, 1434, 1312 and 1273 cm^−1.
The new anhydrous form IV may preferably be prepared by desolvating Moxifloxacin hydrochloride methylene dichloride solvate by drying in vacuum at about 100° C. […] The invention also relates to pharmaceutical compositions comprising form IV.

[6] abbreviates: dessicator, humidity level 33%, 48 hours.

Structures can show the parent of a compound that is named as a salt.

In the case of `COc1c(C)c2c(c(O)c1C/C=C(\C)CCC(=O)OCCN1CCOCC1)C(=O)OC2` [mycophenolate mofetil hydrochloride], the “increase in solubility over the monohydrate salt form” value in series [1] is given as “two-fold”. For the same molecule, the stability characteristics result in series [2] is given as “possessing the stability characteristics of the monohydrate salt form”.
Take `COc1c(N2C[C@@H]3CCCN[C@@H]3C2)c(F)cc2c(=O)c(C(=O)O)cn(C3CC3)c12` [Moxifloxacine hydrochloride]: the solubility and/or stability result in series [3] is recorded as “good solubility and/or stability”.
Consider “Raloxifene Hydrochloride THF hemisolvate”, for which the “stability / desolvation under air drying conditions” value in series [4] was “stable and does not desolvate”.
With `COc1c(N2C[C@@H]3CCCN[C@@H]3C2)c(F)cc2c(=O)c(C(=O)O)cn(C3CC3)c12.Cl` [Moxifloxacine Hydrochloride Anhydrous Form IV], the “moisture content after humidity storage” value in series [5] (after 48 hours at humidity level 33%) stood at 0.6%. Moreover, the “hygroscopicity relative to other anhydrous forms” value in series [5] (compared with anhydrous form II (US 5849 752, Bayer) and anhydrous form B (WO 2005/054240, Chemi Spa)) was “lower hygroscopicity”. Besides, in series [5] (setting [6]), the “XRPD pattern after humidity storage” value was “no alteration” and the “conversion to a hydrous form” value is listed as “does not convert to a hydrous form”. For the same molecule, in series [5] (initial value), the “moisture content before humidity storage” value is listed as 0.5%.
With “Moxifloxacine Hydrochloride Methylene Dichloride Solvate”, in series [5] (1 day at 33% relative humidity), the “hygroscopicity (water uptake)” value is listed as “not hygroscopic”. Besides, the “stability / desolvation under air drying conditions” value in series [4] is “stable and does not desolvate”.
